Experimental findings from patent US5512595A, “Substituted phenoxyisobutyric acids and esters” (Adir et Compagnie, priority 1993, dated 1996) are described below.

Where a name gives a salt, the structure may show the parent alone. Where only a bound is given, the exact number is not on record here.

Assay [1] deals with human LDL. Nature of the assay: Modification (peroxidation) of human LDL by copper sulphate, MDA production. It counts as biochemical. The note with it: for activity compared with probucol or vitamin E in protecting human LDL: human LDL in vitro, modifications induced by copper sulphate and endothelial cells; for IC50: inhibition of human LDL oxidation induced by copper sulphate (5.10^-6 M), 24 hours, MDA production, read-out: IC50 (M) Cu^2+ (converted). On the procedure:
(§1) The activity of the compounds was tested in comparison with probucol and vitamin E taken as reference products.
1.1.1 Modification of LDL by copper sulphate
Human LDL are incubated for 24 hours in the presence of copper sulphate (5.10^-6 M) and in the absence or in the presence of the test compounds (10^-9 M to 10^-4 M).
After incubation, the peroxidation of the LDL is evaluated by agar gel electrophoresis and by the formation of one of the products of lipid peroxidation: malonic dialdehyde (MDA) (Parthasarathy S., Young S. G., Witztum J. L., Pittman R. C., and Steinberg D.; J. Clin. Invest. 77; 641-644, 1986).
(§2) The activity of the test compounds is evaluated by calculating the concentrations that reduce by 50% (IC50) the production of MDA compared with the control experiments without those compounds.

For assay [2], the system named is human LDL. Description: Modification (peroxidation) of human LDL by endothelial cells from the rabbit aorta, MDA production. The settings on record: for IC50: inhibition of human LDL oxidation induced by endothelial cells (rabbit aorta), 24 hours, MDA production. The class given is cell-based. The protocol:
as §1
1.1.2 Modification of LDL by endothelial cells
Human LDL are incubated for 24 hours in the presence of endothelial cells from the rabbit aorta (RECL B4 line provided by Professor Steinberg, U.S.A), and in the absence or in the presence of the test compounds (10^-9 M to 10^-4 M).
After incubation, the peroxidation of the LDL is evaluated by agar gel electrophoresis and by the formation of one of the products of lipid peroxidation: malonic dialdehyde (MDA) (Steinbrecher U. P., Parthasarathy S., Leake D. S., Witztum J. L., and Steinberg D.; Proc. Nat. Acad. Sci. U.S.A 81, 3883-3887, 1984).
as §2

A further assay has as its system LDL of Watanabe rabbits. Description: Ex vivo study: peroxidation by copper sulphate of LDL from orally treated Watanabe rabbits, MDA production. The class given is in vivo. On the procedure: as §1
2.1 Materials and methods
Watanabe rabbits (genetically hyperlipidaemic rabbits) weighing from 3 kg to 5 kg are used. […]
After treatment, the LDL of the animals are prepared by ultracentrifugation and subjected to oxidation with copper sulphate (5.10^-6 M). The lipid peroxidation of the LDL is evaluated after various periods of incubation with copper sulphate (from 2 to 24 hours) by measuring the formation of MDA.
Table B groups the MDA production values according to the period of incubation with copper sulphate of the LDL originating from control animals and from animals treated with the compound of Example 1 at different doses or with probucol.

What is called IC50 is the concentration that gives 50% inhibition. In the case of `Cc1cc(SCCc2ccc(OC(C)(C)C(=O)O)cc2)c(C)c(C)c1O` [Example 3, 2-{4-2-(4-hydroxy-2,3,5-trimethylphenylthio)ethyl!phenoxy}isobutyric acid], in the assay on human LDL [1], the “activity compared with probucol or vitamin E in protecting human LDL” value was “greater activity” and the half-inhibitory concentration (IC50) was 9e-08 M.

With `CC(C)(Oc1ccc(CCOc2cc(C(C)(C)C)c(O)c(C(C)(C)C)c2)cc1)C(=O)O` [Example 10, 2-{4-2-(3,5-di-tert-butyl-4-hydroxyphenoxy)ethyl!phenoxy}isobutyric acid], the figures for the IC50 with human LDL [1] and with human LDL [2] were 2e-08 M and 7 nM, respectively.

As to `CC(C)(Oc1ccc(CCCSc2cc(C(C)(C)C)c(O)c(C(C)(C)C)c2)cc1)C(=O)O` [Example 5, tert-butylamine salt of 2-{4-3-(3,5-di-tert-butyl-4-hydroxyphenylthio)propyl!phenoxy}isobutyric acid], in the assay on human LDL [1], the “activity compared with probucol or vitamin E in protecting human LDL” value is on record as “greater activity” and the IC50 is 4e-08 M.

For `Cc1c(C)c2c(c(C)c1O)CCC(C)(CCCc1ccc(OC(C)(C)C(=O)O)cc1)O2` (racemic) [Example 18, Tert-butylamine (R,S)-2-{4-3-(6-hydroxy-2,5,7,8-tetramethylchroman-2-yl)propyl!phenoxy}isobutyrate], the IC50 in the assay with human LDL [1] is 6e-08 M.

Consider `Cc1c(C)c2c(c(C)c1O)CCC(C)(/C=C\Cc1ccc(OC(C)(C)C(=O)O)cc1)O2` (racemic) [Example 15, Tert-butylamine (Z)-(R,S)-2-{4-3-(6-hydroxy-2,5,7,8-tetramethylchroman-2-yl)prop-2-en-1-yl!phenoxy}isobutyrate], for which, in the assay with human LDL [1], the IC50 is 4e-08 M.

With `CC(C)(Oc1ccc(CSc2cc(C(C)(C)C)c(O)c(C(C)(C)C)c2)cc1)C(=O)O` [Example 4, 2-4-(3,5-di-tert-butyl-4-hydroxyphenylthiomethyl)phenoxy!isobutyric acid], in the assay on human LDL [1], the “activity compared with probucol or vitamin E in protecting human LDL” value is “greater activity” and the IC50 is 3e-08 M.

Turning to `CC(C)(Sc1cc(C(C)(C)C)c(O)c(C(C)(C)C)c1)Sc1cc(C(C)(C)C)c(O)c(C(C)(C)C)c1` [PROBUCOL, probucol, reference compound], the values for the IC50 with human LDL [1] and with human LDL [2] were 3e-06 M and 4000 nM, respectively. Besides, the “retardation of LDL peroxidation compared with control animals” value in the assay on LDL of Watanabe rabbits (250 mg/kg/day) was “approximately 2 hours”. In addition, the MDA production in the assay with LDL of Watanabe rabbits (250 mg/kg/day orally, 2 hours incubation of LDL with copper sulphate) was 1.85 nmol/mg proteins; in the assay with LDL of Watanabe rabbits (250 mg/kg/day orally, 4 hours incubation of LDL with copper sulphate), 3.50 nmol/mg proteins; in the assay with LDL of Watanabe rabbits (250 mg/kg/day orally, 6 hours incubation of LDL with copper sulphate) it was 4.90 nmol/mg proteins; with LDL of Watanabe rabbits (250 mg/kg/day orally, 8 hours incubation of LDL with copper sulphate), 12.26 nmol/mg proteins; with LDL of Watanabe rabbits (250 mg/kg/day orally, 24 hours incubation of LDL with copper sulphate) it was 23.81 nmol/mg proteins.

As for `CC(C)(Oc1ccc(CCSc2cc(C(C)(C)C)c(O)c(C(C)(C)C)c2)cc1)C(=O)O` [Example 1, 2-{4-2-(3,5-di-tert-butyl-4-hydroxyphenylthio)ethyl!phenoxy}isobutyric acid], the “activity compared with probucol or vitamin E in protecting human LDL” value with human LDL [1] is “greater activity”. For the same compound, the IC50 in the assay on human LDL [1] was 5e-08 M; in the assay with human LDL [2], 3 nM. Further, the “times more effective than is probucol (test using endothelial cells)” value in the assay with human LDL [2] (endothelial cells, compared with probucol) was found to be 1000 times. In addition, the MDA production with LDL of Watanabe rabbits (50 mg/kg/day orally, 3 days, 2 hours incubation of LDL with copper sulphate) is 0.66 nmol/mg proteins; in the assay with LDL of Watanabe rabbits (50 mg/kg/day orally, 3 days, 4 hours incubation of LDL with copper sulphate), 0.35 nmol/mg proteins; in the assay on LDL of Watanabe rabbits (50 mg/kg/day orally, 3 days, 6 hours incubation of LDL with copper sulphate), 0.31 nmol/mg proteins; in the assay on LDL of Watanabe rabbits (50 mg/kg/day orally, 3 days, 8 hours incubation of LDL with copper sulphate), 0.26 nmol/mg proteins; with LDL of Watanabe rabbits (50 mg/kg/day orally, 3 days, 24 hours incubation of LDL with copper sulphate), 0.86 nmol/mg proteins. For the same compound, in the assay with LDL of Watanabe rabbits (from a dose of 50 mg/kg/day), the “inhibition of LDL peroxidation induced by copper sulphate” value is on record as “completely inhibits”.

Turning to vitamin E [reference compound], the results for the IC50 in the assay with human LDL [1] and in the assay on human LDL [2] were > 0.0001 M and 4000 nM, respectively.

With `Cc1cc(OCCc2ccc(OC(C)(C)C(=O)O)cc2)c(C)c(C)c1O` [Example 9, 2-{4-2-(4-hydroxy-2,3,5-trimethylphenoxy)ethyl!phenoxy}isobutyric acid], in the assay with human LDL [1], the IC50 was 5e-07 M.
